{"source": "patent US7338948B2", "about": "“Use of quetiapine” (AstraZeneca AB, priority 2000, dated 2008)", "key": {"[1]": {"tested_on": "Conduct Disorder, Childhood Onset, Moderate Severity and Attention Deficit Hyperactivity Disorder (ADHD), Combined Type", "assay": "Case report: patient with Conduct Disorder and ADHD treated with successive drugs", "source_text": "A person was diagnosed with ‘Conduct Disorder, Childhood Onset, Moderate Severity’ and ‘Attention Deficit Hyperactivity Disorder (ADHD), Combined Type’ (DSM-IV diagnostic criteria)."}, "[2]": {"assay": "Drug level printed in brackets after the dose in the case report", "conditions": "valproate 750 mg", "procedure": "In addition, they were given lithium at gradually increasing doses up to 1125 mg/day (1.7 ng/mL)."}}, "data": [{"smiles": "OCCOCCN1CCN(C2=Nc3ccccc3Sc3ccccc32)CC1", "note": "[Quetiapine, 11-(4-[2-(2-hydroxyethoxy)ethyl]-1-piperazinyl)dibenzo[b,f][1.4]thiazepine]", "values": [{"measurement": "clinical response after 90 days", "setting": "[1]; after 90 days on quetiapine 1000 mg/day and amphetamine-based product 45 mg/day", "result": "complete resolution of previous symptoms"}, {"measurement": "clinical response (psychiatric symptoms)", "setting": "[1]; quetiapine 1000 mg/day (400 mg morning, 600 mg evening) with amphetamine-based product 45 mg/day", "result": "dramatic reduction of their psychiatric symptoms"}, {"measurement": "clinical response (aggression)", "setting": "[1]; quetiapine increased from 50 to 300 mg/day, with amphetamine-based product 60 mg/day", "result": "continued to demonstrate aggression"}]}, {"smiles": "CCCC(CCC)C(=O)O", "note": "[Valproate]", "values": [{"measurement": "drug level", "setting": "[2]", "result": 115, "unit": "ng/mL"}]}, {"smiles": "COC(=O)C(c1ccccc1)C1CCCCN1", "note": "(centres unmarked) [methylphenidate]", "values": [{"measurement": "clinical response (earlier treatment)", "setting": "[1]; methylphenidate taken before the amphetamine-based product and imipramine", "result": "eventually became ineffective"}]}]}
